According to patent US20240208969A1, “SUBSTITUTED FUSED BICYCLIC COMPOUNDS AS PARP INHIBITORS AND THE USE THEREOF” (IMPACT THERAPEUTICS (SHANGHAI), INC., priority 2021, published 2024):

System: MDA-MB-436 cells
Experiment: Inhibition of proliferation of human breast cancer MDA-MB-436 cell line (CCK-8, 7 days)
Format: cell-based
Conditions: Homo sapiens, 168 h, proliferation of MDA-MB-436, 7 days
Description: The cells were cultured in complete medium (DMEM medium +10% FBS+Insulin+glutathione). When the confluence reached about 80%, cells were digested and gently dispensed from the bottom of the dish with a 1 mL pipette. Cell suspension was collected and centrifuged at 500 rpm for 3 min. The supernatant was discarded, and the cell pellet were re-suspended in complete medium. The cells were seeded into a culture dish at an appropriate proportion, and then cultured in a 5% CO2 incubator at 37° C. The assay was carried out when the cells were in optimum condition and the confluence was reached 80%. Cells were harvested in the logarithmic growth phase by using 1 mL pipette gently and then centrifugated at 500 rpm for 3 min. The cells were resuspended by using refresh medium after removing the supernatant and then the cells were counted. The cells were seeded at 3000/well in a 96 well plate and incubated at 37° C. 5% CO2 incubator overnight. In the second day, cells were treated with compound at 8 serially diluted dose with 1000×final concentration in 100% DMSO. The compound was prepared as below: 1000×dilution tested compound solution to 40×test compound solution by adding 5μL, 1000×compound solution to 120 μL Medium (25-fold dilution). The solution was mixed by oscillation. DMSO was used as the control.
The medium was removed from the wells in the plate after the plate was taken out from incubator. Then, fresh medium of 195 μL/per well was added to the 96 well plate. 5μL/per well of 40×test compound solution was added into the 96 well plate. Finally, the plate was incubated for 7 days in a 37° C. 5% CO2 incubator. The medium containing compound was changed once on the fourth day. After 7 days, 20 μL of CCK-8 was added to each well and shake gently, then was cultured for 4 hours. The plate was shaken for 5 min after incubation, the absorbance values of 450 nm. and 650nm wavelengths were recorded respectively (OD=absorbance value of 450 nm−absorbance value of 650 nm) by using the multifunction readout instrument.
Data were analyzed by software GraphPad Prism 6.0. The inhibitory activity of compounds on cell proliferation was plotted using cell survival rate against the compound concentration as coordinates. Cell survival rate %=(ODcompound−ODbackground)/(ODDMSO−ODbackground)×100. The IC50 value was fitted by the s-shaped dose response curve equation: Y=100/(1+10^(log C−log IC50)), and C was the compound concentration.
Table 2 summarizes the inhibitory effect data (IC50) of the compounds on the proliferation of human breast cancer cells MDA-MB-436, wherein ++++ indicates 1<IC50≤10 nM; +++ indicates 10 nM<IC50≤100 nM; ++ indicates 100 nM<IC50≤1 μM; + indicates IC50>1 μM.

Row | IC50 [nM] | SMILES
1 | 100 to 1000 | CCNC(=O)c1ccc(N2CCN(Cc3ccc4c(=O)n(C)c(=O)[nH]c4c3)CC2)c(Cl)n1 [Example 100, 6-chloro-N-ethyl-5-(4-((3-methyl-2,4-dioxo-1,2,3,4-tetrahydroquinazolin-7-yl)methyl)piperazin-1-yl)picolinamide]
2 | 100 to 1000 | CCn1c(=O)[nH]c2cc(CN3CCN(c4ccc(C(=O)NC)nc4OC)CC3)cnc2c1=O [Example 109, 5-(4-((3-ethyl-2,4-dioxo-1,2,3,4-tetrahydropyrido[3,2-d]pyrimidin-7-yl)methyl)piperazin-1-yl)-6-methoxy-N-methylpicolinamide]
3 | > 1000 | CCn1c(=O)[nH]c2cc(CN3CCN(c4ccc5cc[nH]c5c4)CC3)ccc2c1=O [Example 110, 7-((4-(1H-indol-6-yl)piperazin-1-yl)methyl)-3-ethylquinazoline-2,4(1H,3H)-dione]
4 | 10 to 100 | CCN1Cc2c(F)cc(CN3CCN(c4ccc(C(=O)NC)nc4Cl)CC3)cc2NC1=O [Example 120, 6-chloro-5-(4-((3-ethyl-5-fluoro-2-oxo-1,2,3,4-tetrahydroquinazolin-7-yl)methyl)piperazin-1-yl)-N-methylpicolinamide]
5 | 10 to 100 | CCNC(=O)c1ccc(N2CCN(Cc3ccc4c(c3)NC(=O)N(CC)C4)CC2)c(Cl)n1 [Example 118, 5-(4-((3-ethyl-2-oxo-1,2,3,4-tetrahydroquinazolin-7 yl)methyl)piperazin-1-yl)-6-chloro-N-ethylpicolinamide]
6 | 1 to 10 | CCNC(=O)c1ccc(N2CCN(Cc3cc(Cl)c4c(=O)n(CC)c(=O)[nH]c4c3)CC2)c(Cl)n1 [Example 126, 6-chloro-5-(4-((5-chloro-3-ethyl-2,4-dioxo-1,2,3,4-tetrahydroquinazolin-7-yl)methyl)piperazin-1-yl)-N-ethylpicolinamide]
7 | > 1000 | CCn1c(=O)[nH]c2cc(CN3CCN(c4ccc5cn[nH]c5c4)CC3)ccc2c1=O [Example 111, 7-((4-(1H-indazol-6-yl)piperazin-1-yl)methyl)-3-ethylquinazoline-2,4(1H,3H)-dione]
8 | 100 to 1000 | CNC(=O)c1ccc(N2CCN(Cc3cc(F)c4c(=O)n(C)c(=O)[nH]c4c3)CC2)c(C)n1 [Example 105, 5-(4-((5-fluoro-3-methyl-2,4-dioxo-1,2,3,4-tetrahydroquinazolin-7-yl)methyl)piperazin-1-yl)-N,6-dimethylpicolinamide]
9 | 10 to 100 | CCN1Cc2c(F)cc(CN3CCN(c4ccc(C(=O)NC)nc4F)CC3)cc2NC1=O [Example 134, 5-(4-((3-ethyl-5-fluoro-2-oxo-1,2,3,4-tetrahydroquinazolin-7-yl)methyl)piperazin-1-yl)-6-fluoro-N-methylpicolinamide]

The remaining lines, values behind:

Row | SMILES | IC50 [nM]
10 | CCn1c(=O)[nH]c2cc(CN3CCN(c4ccc5c(c4)CCNC5=O)CC3)ccc2c1=O [Example 37, 3-ethyl-7-((4-(1-oxo-1,2,3,4-tetrahydroisoquinolin-6-yl)piperazin-1-yl)methyl)quinazoline-2,4(1H,3H)-dione] | > 1000
11 | CCn1c(=O)[nH]c2cc(CN3CCN(c4ccc(C(=O)NC)nc4F)CC3)cnc2c1=O [Example 9, 5-(4-((3-ethyl-2,4-dioxo-1,2,3,4-tetrahydropyrido[3,2-d]pyrimidin-7-yl)methyl)piperazin-1-yl)-6-fluoro-N-methylpicolinamide] | 100 to 1000
12 | CNC(=O)c1ccc(N2CCN(Cc3ccc4c(=O)n(CCF)c(=O)[nH]c4c3)CC2)c(C)n1 [Example 20, 5-(4-((3-(2-fluoroethyl)-2,4-dioxo-1,2,3,4-tetrahydroquinazolin-7-yl)methyl)piperazin-1-yl)-N,6-dimethylpicolinamide] | 100 to 1000
13 | CNC(=O)c1ccc(N2CCN(Cc3ccc4c(=O)n(C)c(=O)[nH]c4c3)CC2)c(Cl)n1 [Example 98, 6-chloro-N-methyl-5-(4-((3-methyl-2,4-dioxo-1,2,3,4-tetrahydroquinazolin-7-yl)methyl)piperazin-1-yl)picolinamide] | 100 to 1000
14 | CCn1c(=O)[nH]c2cc(CN3CCN(c4ccc(C(=O)NC)nc4C)CC3)c(C)cc2c1=O [Example 52, 5-(4-((3-ethyl-6-methyl-2,4-dioxo-1,2,3,4-tetrahydroquinazolin-7-yl)methyl)piperazin-1-yl)-N,6-dimethylpicolinamide] | > 1000
15 | CCn1c(=O)[nH]c2cc(CN3CCN(c4ccc(C(=O)NC)nc4Br)CC3)ccc2c1=O [Example 94, 6-bromo-5-(4-((3-ethyl-2,4-dioxo-1,2,3,4-tetrahydroquinazolin-7-yl)methyl)piperazin-1-yl)-N-methylpicolinamide] | 10 to 100
16 | CCn1c(=O)[nH]c2cc(CN3CCN(c4ccc(C(=O)NC)nc4C)CC3)c(Cl)cc2c1=O [Example 53, 5-(4-((6-chloro-3-ethyl-2,4-dioxo-1,2,3,4-tetrahydroquinazolin-7-yl)methyl)piperazin-1-yl)-N,6-dimethylpicolinamide] | > 1000
17 | CCn1c(=O)[nH]c2cc(CN3CCN(c4ccc(C(=O)NC)nc4C)CC3)cc(F)c2c1=O [Example 56, 5-(4-((3-ethyl-5-fluoro-2,4-dioxo-1,2,3,4-tetrahydroquinazolin-7-yl)methyl)piperazin-1-yl)-N,6-dimethylpicolinamide] | 10 to 100
18 | CCn1c(=O)[nH]c2cc(-c3cccc(C(=O)Nc4ccc(C(=O)NC)nc4)n3)ccc2c1=O [Example 46, 6-(3-ethyl-2,4-dioxo-1,2,3,4-tetrahydroquinazolin-7-yl) -N-(6-(methylcarbamoyl)pyridin-3-yl)picolinamide] | 100 to 1000
19 | CNC(=O)c1ccc(N2CCN(Cc3ccc4c(=O)n(CC(F)(F)F)c(=O)[nH]c4c3)CC2)c(C)n1 [Example 87, 5-(4-((2,4-dioxo-3-(2,2,2-trifluoroethyl)-1,2,3,4-tetrahydroquinazolin-7-yl)methyl)piperazin-1-yl)-N,6-dimethylpicolinamide] | > 1000
20 | CCn1c(=O)[nH]c2cc(CN3CCN(c4ccc(C(=O)NC)nc4Cl)CC3)c(Cl)cc2c1=O [Example 65, 6-chloro-5-(4-((6-chloro-3-ethyl-2,4-dioxo-1,2,3,4-tetrahydroquinazolin-7-yl)methyl)piperazin-1-yl)-N-methylpicolinamide] | 100 to 1000
21 | CCn1c(=O)[nH]c2cc(CN3CCN(c4ccc(C(=O)NC)nc4C(F)(F)F)CC3)ccc2c1=O [Example 23, 5-(4-((3-ethyl-2,4-dioxo-1,2,3,4-tetrahydroquinazolin-7-yl)methyl)piperazin-1-yl)-N-methyl-6-(trifluoromethyl)picolinamide] | 100 to 1000
22 | CNC(=O)c1ccc(N2CCN(Cc3cnc4c(=O)n(C)c(=O)[nH]c4c3)CC2)cn1 [Example 2, 5-(4-((3-methyl-2,4-dioxo-1,2,3,4-tetrahydropyrido[3,2-d]pyrimidin-7-yl)methyl)piperazin-1-yl)-N-methylpicolinamide] | > 1000
23 | CCn1c(=O)[nH]c2cc(CN3CCN(c4ccc(C(=O)NC)cc4F)CC3)ccc2c1=O [Example 69, 4-(4-((3-ethyl-2,4-dioxo-1,2,3,4-tetrahydroquinazolin-7-yl)methyl)piperazin-1-yl)-3-fluoro-N-methyibenzamide] | > 1000
24 | CCn1c(=O)[nH]c2cc(CN3CCN(c4ncc(C(=O)NC)cc4C)CC3)ccc2c1=O [Example 79, 6-(4-((3-ethyl-2,4-dioxo-1,2,3,4-tetrahydroquinazolin-7-yl)methyl)piperazin-1-yl)-N,5-dimethylnicotinamide] | > 1000
25 | CCNC(=O)c1ccc(N2CCN(Cc3ccc4c(=O)n(CC)c(=O)[nH]c4c3)CC2)c(Br)n1 [Example 95, 6-bromo-N-ethyl-5-(4-((3-ethyl-2,4-dioxo-1,2,3,4-tetrahydroquinazolin-7-yl)methyl)piperazin-1-yl)picolinamide] | 10 to 100
26 | CCn1c(=O)[nH]c2cc(CN3CCN(c4c(C)cc(C(=O)NC)nc4C)CC3)ccc2c1=O [Example 72, 5-(4-((3-ethyl-2,4-dioxo-1,2,3,4-tetrahydroquinazolin-7-yl)methyl)piperazin-1-yl)-N,4,6-trimethylpicolinamide] | > 1000
27 | CCn1c(=O)[nH]c2cc(CN3CCN(c4ccc5c(c4)CCN(C)C5=O)CC3)ccc2c1=O [Example 36, 3-ethyl-7-((4-(2-methyl-1-oxo-1,2,3,4-tetrahydroisoquinolin-6-yl)piperazin-1-yl)methyl)quinazoline-2,4(1H,3H)-dione] | > 1000
28 | CCn1c(=O)[nH]c2cc(CN3CCN(c4ccc(C(=O)NC)cc4Cl)CC3)ccc2c1=O [Example 70, 3-chloro-4-(4-((3-ethyl-2,4-dioxo-1,2,3,4-tetrahydroquinazolin-7-yl)methyl)piperazin-1-yl)-N-methylbenzamide] | > 1000
